Reference: ChEMBL document CHEMBL1127874, “Development of tetrazole bioisosteres in angiotensin II antagonists” (Bioorg Med Chem Lett, 1994)

Tests used:
[1] = biological target: T1, Angiotensin II receptor (AT-1) type-1 (Rattus norvegicus, UniProt P29089+P25095); test: Binding affinity towards Angiotensin II receptor, type 1 in rat liver membrane using [125I]-angiotensin II (0.1 nM); format: cell membranes
T1 sequence (P29089 whole entry): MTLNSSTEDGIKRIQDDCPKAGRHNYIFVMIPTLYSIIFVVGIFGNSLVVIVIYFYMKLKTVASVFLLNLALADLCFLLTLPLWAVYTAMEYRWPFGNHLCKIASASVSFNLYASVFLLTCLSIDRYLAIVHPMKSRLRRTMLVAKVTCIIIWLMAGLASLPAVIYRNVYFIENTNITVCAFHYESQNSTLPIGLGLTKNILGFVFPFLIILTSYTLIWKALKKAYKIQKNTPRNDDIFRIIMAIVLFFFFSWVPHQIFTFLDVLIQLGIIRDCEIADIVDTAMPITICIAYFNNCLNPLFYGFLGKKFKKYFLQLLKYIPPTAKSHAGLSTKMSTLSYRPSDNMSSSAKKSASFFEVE
T1 sequence (P25095 whole entry): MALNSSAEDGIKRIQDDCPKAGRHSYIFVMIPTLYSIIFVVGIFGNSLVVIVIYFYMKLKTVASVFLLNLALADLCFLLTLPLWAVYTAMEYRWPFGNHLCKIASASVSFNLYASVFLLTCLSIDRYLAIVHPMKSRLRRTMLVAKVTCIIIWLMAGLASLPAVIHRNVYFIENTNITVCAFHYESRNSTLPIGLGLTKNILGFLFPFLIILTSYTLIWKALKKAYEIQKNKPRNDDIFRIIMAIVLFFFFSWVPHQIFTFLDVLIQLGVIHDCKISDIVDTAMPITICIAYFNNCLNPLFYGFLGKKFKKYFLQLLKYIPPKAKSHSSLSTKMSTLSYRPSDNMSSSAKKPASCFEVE

[2] = organism: Oryctolagus cuniculus; test: Inhibitory activity against contractile response to angiotensin II (10 nM) of rabbit aortic rings; format: functional; conditions: Aorta

| SMILES | IC50 [1] [nM] | IC50 [2] [nM] |
| --- | --- | --- |
| CCCCC1=NC2(CCCC2)C(=O)N1Cc1ccc(-c2ccccc2-c2nnn[nH]2)cc1 [IRBESARTAN] | 1.3 | – |
| CCCCC1=NC(C)(C2CCCCC2)C(=O)N1Cc1ccc(-c2ccccc2-c2noc(O)n2)cc1 (stereo not drawn) | 0.7 | 0.64 |
| CCCCC1=NC(C)(C2CCCCC2)C(=O)N1Cc1ccc(-c2ccccc2-c2n[nH]c(O)n2)cc1 (stereo not drawn) | 100 | – |
| CCCCC1=NC2(CCCC2)C(=O)N1Cc1ccc(-c2ccccc2-c2noc(O)n2)cc1 | 1.7 | 2.6 |
| CCCCC1=NC2(CCCC2)C(=O)N1Cc1ccc(-c2ccccc2-n2oc(=O)[nH]c2=O)cc1 | 1.4 | 2.8 |
| CCCCC1=NC2(CCCC2)C(=O)N1Cc1ccc(-c2ccccc2-c2nnc(O)o2)cc1 | 60 | 67 |
| CCCCC1=NC2(CCCC2)C(=O)N1Cc1ccc(-c2ccccc2C2=NOC(=O)C2)cc1 | 25 | 140 |
| CCCCC1=NC2(CCCC2)C(=O)N1Cc1ccc(-c2ccccc2-c2nc(=O)[nH]o2)cc1 | 230 | – |
